In ChEMBL document CHEMBL3046851, “Synthesis of analogues of monic acids A and C: Potential herbicides and inhibitors of isoleucyl tRNA synthetase” (Bioorg Med Chem Lett, 1996):
Calls of active or inactive are those of the source. The rule behind the calls is not given here.

How the values were obtained:
[1] = Herbicidal activity against broadleaf weeds; format: functional
[2] = system: Spinacia oleracea; experiment: Inhibition of Spinacia oleracea (spinach) chloroplast isoleucyl tRNA synthetase at 1 uM
[3] = system: Poaceae; experiment: Herbicidal activity against Poaceae (grass) weeds; format: functional, organism-based

| SMILES | Activity [1] | inhibition [2] | Activity [3] |
| --- | --- | --- | --- |
| COC(=O)/C=C(/C)Cc1cccc(C[C@H]2O[C@@H]2[C@@H](C)[C@H](C)O)c1 | inactive | inactive | inactive |
| COC(=O)/C=C(/C)Cc1cccc(C[C@@H]2O[C@H]2[C@@H](C)[C@H](C)O)c1 | inactive | inactive | inactive |
| CCOC(=O)/C=C(\C)C[C@H]1OC[C@@H](C/C=C/[C@@H](C)[C@H](C)O)CO1 | inactive | inactive | inactive |
| COC(=O)/C=C(\C)Cc1cccc(C[C@H]2O[C@@H]2[C@@H](C)[C@H](C)O)c1 | inactive | inactive | inactive |
| CCOC(=O)c1cccc(-c2cccc(C[C@@H]3O[C@H]3[C@@H](C)[C@H](C)O)c2)c1 | inactive | inactive | inactive |
| CCOC(=O)c1cccc(-c2cccc(C/C=C/[C@@H](C)[C@H](C)O)c2)c1 | inactive | inactive | inactive |
| COC(=O)/C=C(\C)Cc1cccc(C[C@@H]2O[C@H]2[C@@H](C)[C@H](C)O)c1 | inactive | inactive | inactive |
| COC(=O)/C=C(/C)Cc1cccc(C/C=C/[C@@H](C)[C@H](C)O)c1 | inactive | inactive | inactive |
| C/C(=C\C(=O)OCCCCCCCCC(=O)O)C[C@@H]1OC[C@H](C[C@@H]2O[C@H]2[C@@H](C)[C@H](C)O)[C@@H](O)[C@H]1O |  | 75% |  |
| CCOC(=O)/C=C(/C)C[C@H]1OC[C@H](C/C=C/[C@@H](C)[C@H](C)O)CO1 | inactive | inactive | inactive |
| COC(=O)/C=C(\C)Cc1cccc(C/C=C/[C@@H](C)[C@H](C)O)c1 | inactive | inactive | inactive |
| CCOC(=O)/C=C(\C)C[C@H]1OC[C@H](C/C=C/[C@@H](C)[C@H](C)O)CO1 | inactive | inactive | inactive |
| CCOC(=O)c1cccc(-c2cccc(C[C@H]3O[C@@H]3[C@@H](C)[C@H](C)O)c2)c1 | inactive | inactive | inactive |
